Reference: patent US6277847A, “Herbicidal isoindolinonyl-and 3,4-dihydroisoquinolonyl-substituted heterocycles” (FMC Corporation, priority 2000, dated 2001)

Tests used:
Type in all cases: in vivo
[1] = tested on: green foxtail (Setaria viridis); experiment: post-emergence herbicidal activity, green foxtail; conditions: 1 Kg/Ha, about fourteen days, read-out: post-emergence herbicidal activity (% control) SETVI
Description: (§1) This example sets forth the methods of herbicidal testing conducted on the specific compounds set forth below. Specifically, the compounds referenced below were tested for pre- and post-emergence herbicidal activity using a variety of crops and weeds. The test plants include, but are not limited to, soybean (Glycine max -- var. Winchester), field corn (Zea mays var. Pioneer 3732), wheat (Triticum aestivum var. Lew), morningglory (Ipomea lacunosa or Ipomea hederacea), velvetleaf (Abutilon theophrasti), green foxtail (Setaria viridis), Johnsongrass (Sorghum halepense), blackgrass (Aloepecurus myosuroides), common chickweed (Stellaria media), and common cocklebur (Xanthium strumarium L.).
(§2) In the post-emergence test, seeds of the plant species named above were planted in flats containing the appropriate soil mixture where they were maintained to allow the seeds to germinate. When the plants in these flats reached the proper stage of growth, flats for the pre-emergence tests were planted in a like manner. The flats containing the post-emergence and pre-emergence test plant species were then sprayed with an appropriately concentrated water/acetone solution of test compound. Once treated the flats were maintained, along with untreated controls, for about fourteen days. All treated plants were then examined for phytotoxicity, which was expressed as percent control where 0 is no effect and 100 is complete control. Effective rates of application for the compounds of the present invention range from 0.001 to 3 kg/ha, more likely from […] to 1 Kg/ha.
(§3) Herbicidal activity data at selected application rates are in Tables 4 and 5. The test compounds are identified by numbers correspond to those in Table 1.
(§4) SOY is soybean, WHT is wheat, CRN is corn, ABUTH is velvetleaf, IPOSS is
(§5) morningglory, STEME is chickweed, XANPE is cocklebur, ALOMY is blackgrass,
(§6) Rate of application of test compound is 1 Kg/Ha. The definitions as shown under Table 4 apply to Table 5.

[2] = tested on: wheat (Triticum aestivum var. Lew); experiment: pre-emergence herbicidal activity, wheat; conditions: 1 kg/Ha, about fourteen days, read-out: pre-emergence herbicidal activity (% control) WHT
Description: as §1, §2, §3
(§7) Rate of application of test compound is 1 kg/Ha
as §4
(§8) morningglory, STEME is chickweed, XANPE is cocklebur, ALOMY is blackgrass, […]

[3] = tested on: green foxtail (Setaria viridis); experiment: pre-emergence herbicidal activity, green foxtail; conditions: 1 kg/Ha, about fourteen days, read-out: pre-emergence herbicidal activity (% control) SETVI
Description: as §1, §2, §3, §7, §4, §8

[4] = tested on: soybean (Glycine max -- var. Winchester); experiment: pre-emergence herbicidal activity, soybean; conditions: 1 kg/Ha, about fourteen days, read-out: pre-emergence herbicidal activity (% control) SOY
Description: as §1, §2, §3, §7, §4, §8

[5] = tested on: soybean (Glycine max -- var. Winchester); experiment: post-emergence herbicidal activity, soybean; conditions: 1 Kg/Ha, about fourteen days, read-out: post-emergence herbicidal activity (% control) SOY
Description: as §1, §2, §3, §4, §5, §6

[6] = tested on: field corn (Zea mays var. Pioneer 3732); experiment: post-emergence herbicidal activity, corn; conditions: 1 Kg/Ha, about fourteen days, read-out: post-emergence herbicidal activity (% control) CRN
Description: as §1, §2, §3, §4, §5, §6

[7] = tested on: Johnsongrass (Sorghum halepense); experiment: post-emergence herbicidal activity, johnsongrass; conditions: 1 Kg/Ha, about fourteen days, read-out: post-emergence herbicidal activity (% control) SORHA
Description: as §1, §2, §3, §4, §5, §6

[8] = tested on: morningglory (Ipomea lacunosa or Ipomea hederacea); experiment: pre-emergence herbicidal activity, morningglory; conditions: Ipomoea, 1 kg/Ha, about fourteen days, read-out: pre-emergence herbicidal activity (% control) IPOSS
Description: as §1, §2, §3, §7, §4, §8

[9] = tested on: common cocklebur (Xanthium strumarium L.); experiment: post-emergence herbicidal activity, cocklebur; conditions: 1 Kg/Ha, about fourteen days, read-out: post-emergence herbicidal activity (% control) XANPE
Description: as §1, §2, §3, §4, §5, §6

[10] = tested on: blackgrass (Aloepecurus myosuroides); experiment: pre-emergence herbicidal activity, blackgrass; conditions: Alopecurus myosuroides, 1 kg/Ha, about fourteen days, read-out: pre-emergence herbicidal activity (% control) ALOMY
Description: as §1, §2, §3, §7, §4, §8

[11] = tested on: velvetleaf (Abutilon theophrasti); experiment: pre-emergence herbicidal activity, velvetleaf; conditions: 1 kg/Ha, about fourteen days, read-out: pre-emergence herbicidal activity (% control) ABUTH
Description: as §1, §2, §3, §7, §4, §8

[12] = tested on: common chickweed (Stellaria media); experiment: pre-emergence herbicidal activity, chickweed; conditions: 1 kg/Ha, about fourteen days, read-out: pre-emergence herbicidal activity (% control) STEME
Description: as §1, §2, §3, §7, §4, §8

[13] = tested on: wheat (Triticum aestivum var. Lew); experiment: post-emergence herbicidal activity, wheat; conditions: 1 Kg/Ha, about fourteen days, read-out: post-emergence herbicidal activity (% control) WHT
Description: as §1, §2, §3, §4, §5, §6

[14] = tested on: field corn (Zea mays var. Pioneer 3732); experiment: pre-emergence herbicidal activity, corn; conditions: 1 kg/Ha, about fourteen days, read-out: pre-emergence herbicidal activity (% control) CRN
Description: as §1, §2, §3, §7, §4, §8

[15] = tested on: common cocklebur (Xanthium strumarium L.); experiment: pre-emergence herbicidal activity, cocklebur; conditions: 1 kg/Ha, about fourteen days, read-out: pre-emergence herbicidal activity (% control) XANPE
Description: as §1, §2, §3, §7, §4, §8

[16] = tested on: Johnsongrass (Sorghum halepense); experiment: pre-emergence herbicidal activity, johnsongrass; conditions: 1 kg/Ha, about fourteen days, read-out: pre-emergence herbicidal activity (% control) SORHA
Description: as §1, §2, §3, §7, §4, §8

[17] = tested on: velvetleaf (Abutilon theophrasti); experiment: post-emergence herbicidal activity, velvetleaf; conditions: 1 Kg/Ha, about fourteen days, read-out: post-emergence herbicidal activity (% control) ABUTH
Description: as §1, §2, §3, §4, §5, §6

[18] = tested on: morningglory (Ipomea lacunosa or Ipomea hederacea); experiment: post-emergence herbicidal activity, morningglory; conditions: Ipomoea, 1 Kg/Ha, about fourteen days, read-out: post-emergence herbicidal activity (% control) IPOSS
Description: as §1, §2, §3, §4, §5, §6

[19] = tested on: common chickweed (Stellaria media); experiment: post-emergence herbicidal activity, chickweed; conditions: 1 Kg/Ha, about fourteen days, read-out: post-emergence herbicidal activity (% control) STEME
Description: as §1, §2, §3, §4, §5, §6

[20] = tested on: blackgrass (Aloepecurus myosuroides); experiment: post-emergence herbicidal activity, blackgrass; conditions: Alopecurus myosuroides, 1 Kg/Ha, about fourteen days, read-out: post-emergence herbicidal activity (% control) ALOMY
Description: as §1, §2, §3, §4, §5, §6

Row | Compound | activity at 1000 g/ha [1] | activity at 1000 g/ha [2] | activity at 1000 g/ha [3] | activity at 1000 g/ha [4] | activity at 1000 g/ha [5] | activity at 1000 g/ha [6] | activity at 1000 g/ha [7] | activity at 1000 g/ha [8] | activity at 1000 g/ha [9] | activity at 1000 g/ha [10] | activity at 1000 g/ha [11] | activity at 1000 g/ha [12] | activity at 1000 g/ha [13] | activity at 1000 g/ha [14] | activity at 1000 g/ha [15] | activity at 1000 g/ha [16] | activity at 1000 g/ha [17] | activity at 1000 g/ha [18] | activity at 1000 g/ha [19] | activity at 1000 g/ha [20]
1 | Cn1c(C(F)(F)F)cc(=O)n(-c2c(Cl)cc(Cl)c3c2CN(O)C3=O)c1=O [Compound 16] | 30% | 70% | 100% | 50% | 60% | 40% | 30% | 65% | 30% | 60% | 100% | 5% | 20% | 90% | 80% | 100% | 50% | 20% | – | –
2 | CCON1Cc2c(-n3c(=O)cc(C(F)(F)F)n(C)c3=O)ccc(Cl)c2C1=O [Compound 19] | 100% | 100% | 100% | 100% | 100% | 100% | 100% | 100% | 100% | – | 100% | 100% | 100% | 100% | 100% | 100% | 100% | 100% | 100% | –
3 | C=CCN1Cc2c(-n3c(=O)cc(C(F)(F)F)n(C)c3=O)ccc(Cl)c2C1=O [Compound 20] | 100% | 100% | 100% | 100% | 100% | 100% | 100% | 100% | 100% | – | 100% | 100% | 100% | 100% | 100% | 100% | 100% | 100% | 100% | –
4 | CON1Cc2c(-n3c(=O)cc(C(F)(F)F)n(C)c3=O)ccc(Cl)c2C1=O [Compound 21] | 100% | 100% | 100% | 100% | 100% | 80% | 100% | 100% | 95% | – | 100% | 100% | 80% | 100% | 100% | 100% | 100% | 100% | 100% | –
5 | CCN1Cc2c(-n3c(=O)cc(C(F)(F)F)n(C)c3=O)ccc(Cl)c2C1=O [Compound 22] | 100% | 100% | 100% | 100% | 100% | 100% | 100% | 100% | 100% | – | 100% | 100% | 100% | 100% | 100% | 100% | 100% | 100% | 100% | –
6 | CCn1c(C(F)(F)F)cc(=O)n(-c2ccc(Cl)c3c2CN(C(C)C)C3=O)c1=O [Compound 71] | 100% | 100% | 100% | 100% | 90% | 90% | – | 100% | 70% | 90% | 100% | 100% | 80% | 100% | 100% | – | 95% | 95% | 100% | 100%
7 | CCCn1c(C(F)(F)F)cc(=O)n(-c2ccc(Cl)c3c2CN(C(C)C)C3=O)c1=O [Compound 72] | 50% | 30% | 75% | 20% | 60% | 60% | – | 25% | 10% | 30% | 40% | 65% | 0% | 70% | 40% | – | 20% | 10% | 10% | 10%
8 | CC(C)N1Cc2c(-n3c(=O)cc(C(F)(F)F)n(Cc4ccccc4)c3=O)ccc(Cl)c2C1=O [Compound 73] | 60% | 69% | 100% | 95% | 90% | 75% | – | 40% | 75% | 70% | 100% | 100% | 50% | 90% | 70% | – | 100% | 80% | 100% | 70%
9 | CCOC(=O)Cn1c(C(F)(F)F)cc(=O)n(-c2ccc(Cl)c3c2CN(C(C)C)C3=O)c1=O [Compound 74] | 10% | 0% | 5% | 5% | 40% | 30% | – | 20% | 20% | 10% | 5% | 10% | 10% | 0% | 30% | – | 20% | 30% | 20% | 30%
